Measured values published in patent US20230023092A1, “TREATMENT OF DEPRESSION AND OTHER VARIOUS DISORDERS WITH PSILOCYBIN” (COMPASS […], priority 2019, published 2023).

Test system: healthy subjects
Experiment: Phase 1 study: adverse events (TEAEs, MedDRA coded)
Assay type: in vivo, human
Procedure: A Phase 1 randomized, double-blind, placebo-controlled study to evaluate the effect of psilocybin on cognitive and emotional processing as compared to placebo in healthy volunteers was conducted. The study investigated the short-term (Day 7) and long-term (Day 28) effects of moderate (10 mg) and high doses (25 mg) of psilocybin on key domains of cognition, such as episodic memory, attention, working and spatial memory, social cognition and elements of executive function, including cognitive flexibility.
Each subject was assigned 1 treatment bottle containing 5 capsules packaged in a double-blind fashion, depending on the randomized treatment arm, the bottle contained one of the following: • a. Psilocybin 10 mg: 2×5-mg oral psilocybin capsules plus 3×placebo capsules • b. Psilocybin 25 mg: 5×5-mg oral psilocybin capsules • c. Placebo: 5×placebo capsules
Each 5-mg oral psilocybin capsules comprised 5 mg crystalline psilocybin in the form or Polymorph A, 12.5 mg of SMCC 50, 79.5 mg of SMCC 90, 1 mg sodium starch glycolate, 1 mg colloidal silicon dioxide, and 1 mg sodium stearyl fumarate
Adverse events: Throughout the course of the study, all AEs were monitored and recorded. Each AE was classified according to the following criteria: • i. […] Moderate: The AE produces some impairment of functioning, but is not hazardous to the subject's health. • iii. Severe: The AE produces significant impairment of functioning or incapacitation and is a definite hazard to the subject's health.
Visit 3 (V3): Drug Administration (Day 0): The subject was asked to eat a light breakfast at least two hours prior to coming to the clinic for study drug administration. On Day 0 (V3), the subject underwent the SSTS, had vital signs obtained, medications reviewed, AEs recorded and eligibility reviewed prior to being randomized to study drug. The study drug was administered to up to six subjects simultaneously in individual beds separated by a curtain. The subject was invited to put on eyeshades and headphones, lie down and listen to calming music for the rest of the session (six hours). The subject was supported 1:1 with a chaperone and supervised by the study psychiatrist and lead therapist.
During administration of psilocybin, each subject received one-on-one support from a trained assisting therapist and each dosing session was supervised by a study psychiatrist and a lead therapist. The study drug was administered simultaneously to up to six participants as a single 5-capsule oral dose (10 mg psilocybin: 2×5-mg psilocybin capsules plus 3×placebo capsules; 25 mg psilocybin: 5×5-mg psilocybin capsules; placebo: 5×placebo capsules). Twenty-five dosing sessions were completed, with up to six participants dosed simultaneously per session. Each session lasted approximately 6 to 8 hours with subjects encouraged to relax and engage in introspection for the duration. After the acute effects of the study drug had subsided, subjects were discharged.

For `CN(C)CCc1c[nH]c2cccc(OP(=O)(O)O)c12` [Psilocybin, psilocybin], the “Serious adverse events or adverse events that led to withdrawal” value (10 mg and 25 mg oral, 12-week study) was “no serious adverse events or adverse events that led to withdrawal”, the “AEs deemed potentially related to study treatment, % of AEs of the arm” value (10 mg oral) was 92.6% and the “Affect lability, Events” value (10 mg oral) was 5. The “Affect lability, N (%)” value (10 mg oral) was 5 (16.7), the “Affect lability, worst severity Mild, Events” value (10 mg oral) was 3 and the “Affect lability, worst severity Mild, N (%)” value (10 mg oral) was 3 (10.0). For the same compound, the “Affect lability, worst severity Moderate, Events” value (10 mg oral) was 2, the “Affect lability, worst severity Moderate, N (%)” value (10 mg oral) was 2 (6.7) and the “Affect lability, worst severity Severe, Events” value (10 mg oral) was 0. The “Affect lability, worst severity Severe, N (%)” value (10 mg oral) was 0, the “Any Selected TEAE, Events” value (10 mg oral) was 106 and the “Any Selected TEAE, N (%)” value (10 mg oral) was 27 (90.0). For the same compound, the “Any TEAE leading to death, Events” value (10 mg oral) was 0, the “Any TEAE leading to death, N (%)” value (10 mg oral) was 0 and the “Any TEAE leading to study discontinuation, Events” value (10 mg oral) was 0. For the same compound, the “Any TEAE leading to study discontinuation, N (%)” value (10 mg oral) was 0, the “Any TEAE related to study treatment, Events” value (10 mg oral) was 188 and the “Any TEAE related to study treatment, N (%)” value (10 mg oral) was 29 (96.7). The “Any TEAE, Events” value (10 mg oral) was 203, the “Any TEAE, N (%)” value (10 mg oral) was 29 (96.7) and the “Any TEAE, worst severity Mild, Events” value (10 mg oral) was 12. For the same compound, the “Any TEAE, worst severity Mild, N (%)” value (10 mg oral) was 6 (20.0), the “Any TEAE, worst severity Moderate, Events” value (10 mg oral) was 38 and the “Any TEAE, worst severity Moderate, N (%)” value (10 mg oral) was 13 (43.3). The “Any TEAE, worst severity Severe, Events” value (10 mg oral) was 22, the “Any TEAE, worst severity Severe, N (%)” value (10 mg oral) was 10 (33.3) and the “Any serious TEAE related to study treatment, Events” value (10 mg oral) was 0. For the same compound, the “Any serious TEAE related to study treatment, N (%)” value (10 mg oral) was 0, the “Any serious TEAE, Events” value (10 mg oral) was 0 and the “Any serious TEAE, N (%)” value (10 mg oral) was 0. For the same compound, the “Any severe TEAE, Events” value (10 mg oral) was 22, the “Any severe TEAE, N (%)” value (10 mg oral) was 10 (33.3) and the “Change in sustained attention, Events” value (10 mg oral) was 2. For the same compound, the “Change in sustained attention, N (%)” value (10 mg oral) was 2 (6.7), the “Depressed mood, Events” value (10 mg oral) was 1 and the “Depressed mood, N (%)” value (10 mg oral) was 1 (3.3). The “Dissociative identity disorder, Events” value (10 mg oral) was 2, the “Dissociative identity disorder, N (%)” value (10 mg oral) was 1 (3.3) and the “Emotional disorder, Events” value (10 mg oral) was 2. For the same compound, the “Emotional disorder, N (%)” value (10 mg oral) was 2 (6.7), the “Emotional disorder, worst severity Mild, Events” value (10 mg oral) was 1 and the “Emotional disorder, worst severity Mild, N (%)” value (10 mg oral) was 1 (3.3). For the same compound, the “Emotional disorder, worst severity Moderate, Events” value (10 mg oral) was 1, the “Emotional disorder, worst severity Moderate, N (%)” value (10 mg oral) was 1 (3.3) and the “Emotional disorder, worst severity Severe, Events” value (10 mg oral) was 0. The “Emotional disorder, worst severity Severe, N (%)” value (10 mg oral) was 0, the “Euphoric mood, Events” value (10 mg oral) was 7 and the “Euphoric mood, N (%)” value (10 mg oral) was 7 (23.3). The “Euphoric mood, worst severity Mild, Events” value (10 mg oral) was 0, the “Euphoric mood, worst severity Mild, N (%)” value (10 mg oral) was 0 and the “Euphoric mood, worst severity Moderate, Events” value (10 mg oral) was 6. For the same compound, the “Euphoric mood, worst severity Moderate, N (%)” value (10 mg oral) was 6 (20.0), the “Euphoric mood, worst severity Severe, Events” value (10 mg oral) was 1 and the “Euphoric mood, worst severity Severe, N (%)” value (10 mg oral) was 1 (3.3). For the same compound, the “Fatigue, Events” value (10 mg oral) was 10, the “Fatigue, N (%)” value (10 mg oral) was 9 (30.0) and the “Fatigue, worst severity Mild, Events” value (10 mg oral) was 6. The “Fatigue, worst severity Mild, N (%)” value (10 mg oral) was 6 (20.0), the “Fatigue, worst severity Moderate, Events” value (10 mg oral) was 3 and the “Fatigue, worst severity Moderate, N (%)” value (10 mg oral) was 2 (6.7). The “Fatigue, worst severity Severe, Events” value (10 mg oral) was 1, the “Fatigue, worst severity Severe, N (%)” value (10 mg oral) was 1 (3.3) and the “Feeling abnormal, Events” value (10 mg oral) was 4. For the same compound, the “Feeling abnormal, N (%)” value (10 mg oral) was 4 (13.3), the “Feeling abnormal, worst severity Mild, Events” value (10 mg oral) was 3 and the “Feeling abnormal, worst severity Mild, N (%)” value (10 mg oral) was 3 (10.0). The “Feeling abnormal, worst severity Moderate, Events” value (10 mg oral) was 1, the “Feeling abnormal, worst severity Moderate, N (%)” value (10 mg oral) was 1 (3.3) and the “Feeling abnormal, worst severity Severe, Events” value (10 mg oral) was 0. For the same compound, the “Feeling abnormal, worst severity Severe, N (%)” value (10 mg oral) was 0, the “Feeling of relaxation, Events” value (10 mg oral) was 5 and the “Feeling of relaxation, N (%)” value (10 mg oral) was 3 (10.0). For the same compound, the “Gastrointestinal disorders, Events” value (10 mg oral) was 4, the “Gastrointestinal disorders, N (%)” value (10 mg oral) was 4 (13.3) and the “Gastrointestinal disorders, worst severity Mild, Events” value (10 mg oral) was 3. For the same compound, the “Gastrointestinal disorders, worst severity Mild, N (%)” value (10 mg oral) was 3 (10.0), the “Gastrointestinal disorders, worst severity Moderate, Events” value (10 mg oral) was 1 and the “Gastrointestinal disorders, worst severity Moderate, N (%)” value (10 mg oral) was 1 (3.3). The “Gastrointestinal disorders, worst severity Severe, Events” value (10 mg oral) was 0, the “Gastrointestinal disorders, worst severity Severe, N (%)” value (10 mg oral) was 0 and the “General disorders and administration site conditions, Events” value (10 mg oral) was 27. The “General disorders and administration site conditions, N (%)” value (10 mg oral) was 17 (56.7), the “General disorders and administration site conditions, worst severity Mild, Events” value (10 mg oral) was 17 and the “General disorders and administration site conditions, worst severity Mild, N (%)” value (10 mg oral) was 13 (43.3). The “General disorders and administration site conditions, worst severity Moderate, Events” value (10 mg oral) was 6, the “General disorders and administration site conditions, worst severity Moderate, N (%)” value (10 mg oral) was 3 (10.0) and the “General disorders and administration site conditions, worst severity Severe, Events” value (10 mg oral) was 1. For the same compound, the “General disorders and administration site conditions, worst severity Severe, N (%)” value (10 mg oral) was 1 (3.3), the “Hallucination, Events” value (10 mg oral) was 3 and the “Hallucination, N (%)” value (10 mg oral) was 3 (10.0). The “Hallucination, auditory, Events” value (10 mg oral) was 4, the “Hallucination, auditory, N (%)” value (10 mg oral) was 4 (13.3) and the “Hallucination, auditory, worst severity Mild, Events” value (10 mg oral) was 1. For the same compound, the “Hallucination, auditory, worst severity Mild, N (%)” value (10 mg oral) was 1 (3.3), the “Hallucination, auditory, worst severity Moderate, Events” value (10 mg oral) was 1 and the “Hallucination, auditory, worst severity Moderate, N (%)” value (10 mg oral) was 1 (3.3). The “Hallucination, auditory, worst severity Severe, Events” value (10 mg oral) was 2, the “Hallucination, auditory, worst severity Severe, N (%)” value (10 mg oral) was 2 (6.7) and the “Hallucination, gustatory, Events” value (10 mg oral) was 1. For the same compound, the “Hallucination, gustatory, N (%)” value (10 mg oral) was 1 (3.3), the “Hallucination, olfactory, Events” value (10 mg oral) was 1 and the “Hallucination, olfactory, N (%)” value (10 mg oral) was 1 (3.3). For the same compound, the “Hallucination, tactile, Events” value (10 mg oral) was 2, the “Hallucination, tactile, N (%)” value (10 mg oral) was 2 (6.7) and the “Hallucination, visual, Events” value (10 mg oral) was 20. For the same compound, the “Hallucination, visual, N (%)” value (10 mg oral) was 18 (60.0), the “Hallucination, visual, worst severity Mild, Events” value (10 mg oral) was 3 and the “Hallucination, visual, worst severity Mild, N (%)” value (10 mg oral) was 3 (10.0). The “Hallucination, visual, worst severity Moderate, Events” value (10 mg oral) was 8, the “Hallucination, visual, worst severity Moderate, N (%)” value (10 mg oral) was 8 (26.7) and the “Hallucination, visual, worst severity Severe, Events” value (10 mg oral) was 7. For the same compound, the “Hallucination, visual, worst severity Severe, N (%)” value (10 mg oral) was 7 (23.3), the “Hallucination, worst severity Mild, Events” value (10 mg oral) was 0 and the “Hallucination, worst severity Mild, N (%)” value (10 mg oral) was 0. The “Hallucination, worst severity Moderate, Events” value (10 mg oral) was 3, the “Hallucination, worst severity Moderate, N (%)” value (10 mg oral) was 3 (10.0) and the “Hallucination, worst severity Severe, Events” value (10 mg oral) was 0. For the same compound, the “Hallucination, worst severity Severe, N (%)” value (10 mg oral) was 0, the “Headache, Events” value (10 mg oral) was 12 and the “Headache, N (%)” value (10 mg oral) was 9 (30.0). The “Headache, worst severity Mild, Events” value (10 mg oral) was 12, the “Headache, worst severity Mild, N (%)” value (10 mg oral) was 9 (30.0) and the “Headache, worst severity Moderate, Events” value (10 mg oral) was 0. For the same compound, the “Headache, worst severity Moderate, N (%)” value (10 mg oral) was 0, the “Headache, worst severity Severe, Events” value (10 mg oral) was 0 and the “Headache, worst severity Severe, N (%)” value (10 mg oral) was 0. For the same compound, the “Hypoaesthesia, Events” value (10 mg oral) was 2, the “Hypoaesthesia, N (%)” value (10 mg oral) was 2 (6.7) and the “Hypoaesthesia, worst severity Mild, Events” value (10 mg oral) was 2. The “Hypoaesthesia, worst severity Mild, N (%)” value (10 mg oral) was 2 (6.7) and the “Hypoaesthesia, worst severity Moderate, Events” value (10 mg oral) was 0.
